Where a name gives a salt, the structure may show the parent alone.

The record followed here is patent US20130203815A1, “CYTOKINE INHIBITORS” (PIRAMAL ENTERPRISES LIMITED, priority 2010, published 2013).

Type in all cases: cell-based
Assay [1] concerns IL-8. The experiment in a line: hPBMCs assay, LPS-induced IL-8. The conditions noted are these: Homo sapiens, LPS 1 μg/ml, 5 hours, ELISA. As to the method:
(§1) TNF-α production by lipopolysaccharides (LPS) in hPBMCs was measured according to the method described in literature (Physiol. Res., 2003, 52, 593-598). Blood was collected from healthy donors into Potassium EDTA vacutainer tubes (BD vacutainer). The PBMCs were isolated using gradient centrifugation in Histopaque-1077 solution (Sigma). Isolated PBMC were suspended in RPMI 1640 culture medium (Sigma-Aldrich Fine Chemicals, USA), containing 10% fetal bovine serum (FBS) (JRH, USA), 100 U/ml penicillin (Sigma Chemical Co. St Louis, Mo.) and 100 μg/ml streptomycin (Sigma Chemical Co. St Louis, Mo.). The cell concentration was adjusted to 1×10^6 cells/ml. The viability as determined by trypan blue dye exclusion was uniformly ≧98%. The cell suspension (100 μl) was added to the wells of a 96-well culture plate. Following cell plating, 79 μl of the culture medium and 1 μl of eight different concentrations of the test compounds (final concentration 0.03, 0.1, 0.3, 1, 3, 10, 30, 100 μg/ml) dissolved in DMSO were added to the cells. The final concentration of DMSO was adjusted to 0.5%. The vehicle (0.5 DMSO) was used as control. Rolipram (300 μM) was used as a standard compound. The plates were incubated for 30 minutes at 37° C. in an atmosphere of 5% CO2. Finally, 20 μl (10 μg/ml) per well of LPS, (Escherchia coli 0127:B8, Sigma Chemical Co., St. Louis, Mo.) was added, for a final concentration of 1 µg/ml. The plates were incubated at 37° C. for 5 hours in an atmosphere of 5% CO2. To assess the cytotoxic effect of the test compounds, the cellular viability test was performed using MTS (3-(4,5-dimethylthiazol-2-yl)-5-(3-carboxymethoxyphenyl)-2-(4-sulfonyl)-2H-tetrazolium) reagent after 5 hours of incubation. Supernatants were harvested and assayed for TNF-α, interleukin-1β (IL-1β), interleukin-6 (IL-6) and interleukin-8 (IL-8) by ELISA as described by the manufacturer. (OptiEIA ELISA sets, BD Biosciences, Pharmingen). […]
In general terms: In an ELISA, binding on a coated surface is turned into a signal by an enzyme label.

The test system of assay [2] is TNF-α. The experiment in a line: hPBMCs assay, LPS-induced TNF-α. The settings on record: Homo sapiens, LPS 1 μg/ml, 5 hours, ELISA. The procedure: as §1
For assay [3], the system named is IL-1β. Put plainly: hPBMCs assay, LPS-induced IL-1β. The settings on record: Homo sapiens, LPS 1 μg/ml, 5 hours, ELISA. As to the method:
as §1

Assay [4] deals with IL-6. The experiment in a line: hPBMCs assay, LPS-induced IL-6. The settings on record: Homo sapiens, LPS 1 μg/ml, 5 hours, ELISA. The procedure: as §1
Assay [5] relates to TNF-α. The experiment in a line: Whole blood cell culture assay, LPS-induced TNF-α release. The settings on record: Homo sapiens, at a concentration of 10 μM, LPS 1 μg/ml, 4.5 hours. The procedure: TNF-α production by lipopolysaccharide (LPS) in whole blood was measured according to the method described in literature (J. Immunol. Methods, 1991, 139, 233-240).
Blood was collected from healthy donors into potassium EDTA vacutainer tubes (Becton Dickinson) and diluted with RPMI (Roswell Park Memorial Institute) 1640 culture medium (Gibco BRL, Pasley, UK) containing 100 U/ml penicillin and 100 μg/ml streptomycin, (100× solution, Sigma Chemical Co. St Louis, Mo.) with no added serum. The white blood cell count was adjusted to 1×10^6 cells/ml and 100 it/well of the diluted blood was transferred into 96-well culture plates. Following cell plating, 79 μl of culture medium and 1 μl of the test compounds (final concentration 1 μM and 10 μM) dissolved in DMSO was added to the cells. The final concentration of DMSO was adjusted to 0.5%. 1 μl of vehicle (0.5% DMSO) was used as control. Rolipram (300 μM) was used as a standard compound. The plates were incubated for 30 minutes at 37° C. in an atmosphere of 5% CO2. Finally, 20 μl (10 μg/ml) per well of LPS (Escherchia coli 0127:B8, Sigma Chemical Co. St. Louis, Mo.) was added, for a final concentration of 1 μg/ml. Plates were incubated at 37° C. for 4.5 hours in an atmosphere of 5% CO2. Supernatants were harvested and assayed for TNF-α by ELISA as described by the manufacturer (OptiEIA ELISA sets, BD Biosciences, Pharmingen). Percent inhibition of TNF-α release in comparison to the control was calculated.

Broadly, the IC50 is the concentration at which inhibition is half-maximal. The low end stands for higher potency, the high end for lower potency. Usually inhibition stands for the change of the read-out against control, counted positive when it falls. The low end stands for little suppression, the high end for strong suppression. Regarding `COc1cc(OC)c(C2CCN(C)C2CO)c(O)c1C(=O)C=Cc1ccccc1Cl` (racemic) [Example 20, (+/−)3-(2-Chlorophenyl)-1-(2-hydroxy-3-(2-(hydroxymethyl)-1-methylpyrrolidin-3-yl)-4,6-dimethoxy-phenyl)prop-2-en-1-one hydrochloride], the concentration for half-maximal inhibition (IC50) in assay [1] worked out at 6500 nM; in assay [2], 900 nM; in assay [3], 800 nM; in assay [4], 4900 nM. The molecule also showed an inhibition at 10 µM in assay [5] of 66%.

As for `COc1cc(OC)c(C2CCN(C)C2CO)c(O)c1C(=O)C=Cc1cccc(Br)c1` (racemic) [Example 21, (+/−)3-(3-Bromophenyl)-1-(2-hydroxy-3-(2-(hydroxymethyl)-1-methylpyrrolidin-3-yl)-4,6-dimethoxy-phenyl)prop-2-en-1-one], the half-inhibitory concentration (IC50) came out at 5200 nM in assay [1], 800 nM in assay [2], 200 nM in assay [3] and 2300 nM in assay [4]. Also, testing at 10 µM in assay [5] gave an inhibition of 61%.

In the case of `COc1cc(OC)c(C2CCN(C)C2CO)c(O)c1C(=O)C=Cc1cccc(C)c1` (racemic) [Example 23, (+/−)1-(2-Hydroxy-3-(2-(hydroxymethyl)-1-methylpyrrolidin-3-yl)-4,6-dimethoxy-phenyl)-3-m-tolylprop-2-en-1-one], the inhibition at 10 µM in assay [5] turned out to be 32%.

Turning to `COc1cc(OC)c(C2CCN(C)C2CO)c(O)c1C(=O)C=Cc1cccc([N+](=O)[O-])c1` (racemic) [Example 25, (+/−)1-(2-Hydroxy-3-(2-(hydroxymethyl)-1-methylpyrrolidin-3-yl)-4,6-dimethoxy-phenyl)-3-(3-nitrophenyl)prop-2-en-1-one], the IC50 in assay [1] amounted to 5400 nM; in assay [2], 500 nM; in assay [3], 100 nM; in assay [4] it was 2500 nM. This molecule gave an inhibition at 10 µM in assay [5] of 68%.

As for `COc1cc(OC)c(C2CCN(C)C2CO)c(O)c1C(=O)C=Cc1ccc(Cl)cc1` (racemic) [Example 28, (+/−)3-(4-Chlorophenyl)-1-(2-hydroxy-3-(2-(hydroxymethyl)-1-methylpyrrolidin-3-yl)-4,6-dimethoxy-phenyl)prop-2-en-1-one], in assay [5], testing at 10 µM gave an inhibition of 30%.

In turn, `COc1cc(OC)c(C2CCN(C)C2CO)c(O)c1C(=O)C=Cc1ccc(F)cc1` (racemic) [Example 29, (+/−)3-(4-Fluorophenyl)-1-(2-hydroxy-3-(2-(hydroxymethyl)-1-methylpyrrolidin-3-yl)-4,6-dimethoxy-phenyl)prop-2-en-1-one] gave an inhibition at 10 µM in assay [5] of 31%.

The molecule `COc1cc(OC)c(C2CN(C)C(=O)C2CO)c(O)c1C(=O)C=Cc1ccccc1Cl` (racemic) [Example 39, (+/−)4-(3-(3-(2-Chlorophenyl)acryloyl)-2-hydroxy-4,6-dimethoxy-phenyl)-3-(hydroxymethyl)-1-methylpyrrolidin-2-one] had an inhibition at 10 µM in assay [5] of 75%.

The molecule `COc1cc(OC)c(C2CCN(C)C2CO)c(O)c1C(=O)C=Cc1ccc(C)o1` (racemic) [Example 45, (+/−)1-(2-Hydroxy-3-(2-(hydroxymethyl)-1-methylpyrrolidin-3-yl)-4,6-dimethoxy-phenyl)-3-(5-methylfuran-2-yl)prop-2-en-1-one] came in with an inhibition at 10 µM in assay [5] of 54%.

With `COc1cc(OC)c(C2CCN(C)C2CO)c(O)c1C(=O)C=Cc1cccnc1` (racemic) [Example 48, (+/−)1-(2-Hydroxy-3-(2-(hydroxymethyl)-1-methylpyrrolidin-3-yl)-4,6-dimethoxy-phenyl)-3-(pyridin-3-yl)prop-2-en-1-one], 10 µM produced 61% inhibition in assay [5].
